Test results from paper PMC3162038 (Journal of the American Chemical Society, 2011).

Tests used:
Assay type in all cases: biochemical
[1] = target: T1, OtsA (Escherichia coli, UniProt P31677); assay: ESI-MS of product; conditions: UDP-glucose and glucose 6-phosphate as substrates; 5 mM MgCl2, 50 mM Tris-HCl pH 7.5
T1 sequence (P31677 1-474): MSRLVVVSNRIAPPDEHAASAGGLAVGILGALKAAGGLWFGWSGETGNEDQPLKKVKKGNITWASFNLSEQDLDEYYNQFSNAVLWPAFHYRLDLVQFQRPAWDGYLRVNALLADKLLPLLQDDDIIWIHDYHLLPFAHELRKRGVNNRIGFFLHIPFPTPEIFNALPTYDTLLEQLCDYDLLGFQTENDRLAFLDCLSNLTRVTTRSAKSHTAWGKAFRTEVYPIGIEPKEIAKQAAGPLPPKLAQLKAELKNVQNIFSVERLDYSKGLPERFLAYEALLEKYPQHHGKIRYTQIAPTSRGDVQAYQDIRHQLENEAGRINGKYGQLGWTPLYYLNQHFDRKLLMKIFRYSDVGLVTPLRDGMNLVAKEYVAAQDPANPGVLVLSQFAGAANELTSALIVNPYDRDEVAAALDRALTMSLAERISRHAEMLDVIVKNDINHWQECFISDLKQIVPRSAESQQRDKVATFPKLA

[2] = target: T2, VldH (Streptomyces hygroscopicus, UniProt Q15JF8); assay: ESI-MS of product; conditions: 5 mM substrate, 10 mM MgCl2, 50 mM Tris-HCl pH 7.5, 1.5 h
T2 sequence (Q15JF8 1-213): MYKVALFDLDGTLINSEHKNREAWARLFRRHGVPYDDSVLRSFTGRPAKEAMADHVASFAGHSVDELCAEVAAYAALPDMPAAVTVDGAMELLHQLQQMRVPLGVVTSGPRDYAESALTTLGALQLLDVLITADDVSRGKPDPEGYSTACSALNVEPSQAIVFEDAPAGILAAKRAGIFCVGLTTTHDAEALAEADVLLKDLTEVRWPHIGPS

[3] = target: T3, VldB (Streptomyces hygroscopicus, UniProt Q15JG4); assay: HPLC and ESI-MS of product; conditions: valienol 1-phosphate as co-substrate; 1 mM Mg2+
T3 sequence (Q15JG4 1-373): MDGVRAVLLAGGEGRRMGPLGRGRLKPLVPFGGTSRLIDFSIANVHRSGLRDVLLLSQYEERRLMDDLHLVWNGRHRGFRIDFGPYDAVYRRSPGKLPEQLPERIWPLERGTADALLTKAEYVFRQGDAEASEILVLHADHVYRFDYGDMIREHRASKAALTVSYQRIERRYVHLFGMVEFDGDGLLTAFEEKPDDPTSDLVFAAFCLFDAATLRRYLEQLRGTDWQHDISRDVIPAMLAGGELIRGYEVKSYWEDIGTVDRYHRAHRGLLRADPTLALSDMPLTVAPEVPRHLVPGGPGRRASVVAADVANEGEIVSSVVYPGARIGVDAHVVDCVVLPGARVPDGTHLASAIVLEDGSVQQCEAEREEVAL

`O=P(O)(O)OC[C@H]1O[C@H](O[C@H]2O[C@H](CO)[C@@H](O)[C@H](O)[C@H]2O)[C@H](O)[C@@H](O)[C@@H]1O` [trehalose 6-phosphate] was tested, and the ESI-MS of product [1] was “the recombinant OtsA can catalyze the formation of trehalose 6-phosphate” and the ESI-MS of product [2] was “VldH was able to catalyze dephosphorylation of trehalose 6-phosphate to give trehalose”.
In the case of `Nc1nc2c(ncn2[C@@H]2O[C@H](COP(=O)(O)OP(=O)(O)OP(=O)(O)O)[C@@H](O)[C@H]2O)c(=O)[nH]1` [GTP], the “HPLC and ESI-MS of product” value [3] was “effectively catalyzes the conversion of valienol 1-phosphate to GDP-valienol”.
